Measurements: patent publication US20060062865A1, “Tyrosinase inhibitor and method for preparation” (priority 2004, published 2006)

Tested on: mushroom tyrosinase
Test: Mushroom tyrosinase in vitro enzyme assay (absorbance at 492 nm)
Assay type: biochemical
Details: in vitro tyrosinase (mushroom) enzyme activity
Protocol: Enzyme assay. The mushroom tyrosinase was used for the bioassay. It was purchased from Sigma Chemical Co. (St. Louis, Mo.). The assay was performed by adding 200 microliters of reaction cocktail (mixture of potassium phosphate buffer 50 mM, pH 6.5, 10 ml; 1 mM tyrosine solution, 10 ml and deionized water, 9 ml) and 10 microliters of tested extract dissolved in ethanol at concentration of 1 mg/ml followed by 10 microliters of tyrosinase (1000 units/ml) to 96-well plate. After 2 min incubation at room temperature, the initial absorbance was read at 492 nm on the plate reader. Final absorbance values were read after 10 minutes. The enzyme activity was calculated from the differential values for absorbance and then converted into inhibitory activity. Kojic acid was used as standard at a concentration of 1 mg/ml dissolved in 95% ethanol.

- Inhibition at 1 mg/ml (sample 1 mg/ml in ethanol, tyrosine substrate, Table 1 experiment): 88%
- Inhibition at 1 mg/ml (sample 1 mg/ml, extracts of different plant parts, Table 2 experiment): 86%
Structure (SMILES): O=c1cc(CO)occ1O [Kojic acid]
